Source: patent US6509335B1, “Benzoxazinoes/benzothiazinones as serine protease inhibitors” (Warner-Lambert Company, priority 1998, dated 2003)

Tests used:
[1] = tested on: pooled plasma from rabbits; assay: In vitro diluted prothrombin time (dPT) assay, rabbit plasma; conditions: for concentration that causes 2-fold prolongation of baseline dPT: 2X; for concentration that causes 5-fold prolongation of baseline dPT: 5X; for concentration that causes 10-fold prolongation of baseline dPT: 10X
Experimental: (§1) Rat, rabbit, dog, and human blood (typically 1.8 mL) was collected and added to a sodium citrate solution (3.8%) to afford a 1:10 dilution. After centrifugation (2000 g for 10 minutes), the blood plasma was stored at −70° C. to 0° C. […] […] Fibrin formation and the time required for a clot to form were determined using an automated ST4 Clot Detection System in duplicate.

pooled plasma from dogs = assay: In vitro diluted prothrombin time (dPT) assay, dog plasma; conditions: for concentration that causes 2-fold prolongation of baseline dPT: 2X; for concentration that causes 5-fold prolongation of baseline dPT: 5X; for concentration that causes 10-fold prolongation of baseline dPT: 10X
Experimental: as §1

[2] = tested on: pooled plasma from human volunteers; assay: In vitro diluted prothrombin time (dPT) assay, human plasma; conditions: for concentration that causes 2-fold prolongation of baseline dPT: 2X; for concentration that causes 5-fold prolongation of baseline dPT: 5X; for concentration that causes 10-fold prolongation of baseline dPT: 10X
Experimental: as §1

human thrombin = target: T1, human thrombin (Homo sapiens, UniProt P00734); assay: Determination of thrombin IC50 (chromogenic substrate Chromozym TH); type: biochemical
T1 construct: regulates the generation of thrombin from its zymogen prothrombin; purchased Enzyme Research Laboratories
Experimental: The ability of compounds to act as inhibitors of human thrombin catalytic activity is assessed by determination of that concentration of test substance that inhibits by 50% (IC50) the ability of human thrombin to cleave the chromogenic substrate Chromozym TH (Tosyl-Gly-Pro-Arg-pNA*Ac, Boehringer Mannheim). Typically, 145 μL human thrombin (0.75 nM, Enzyme Research Laboratories) in a HPB buffer (10 mM HEPES, 100 mM NaCl, 0.05% BSA, 0.1% PEG-8000, pH 7.4) and 5 μL of test substance in DMSO (2% final) are incubated for 60 minutes at room temperature. Following preheating to 37° C. for 5 minutes, to this mixture is added 100 μL of Chromozym TH (24 μM final) in HPB buffer. The velocity of Chromozym TH hydrolysis is determined at 37° C. by measuring the initial rate of change of the optical density at OD 405 nm every 10 seconds for 5 minutes using a ThermoMax® Kinetic Microplate Reader.

human trypsin = assay: Determination of trypsin IC50 (chromogenic substrate S2222); type: biochemical
Experimental: The ability of compounds to act as inhibitors of human trypsin catalytic activity is assessed by determination of that concentration of test substance that inhibits by 50% (IC50) the ability of human trypsin to cleave the chromogenic substrate S2222 (N-Bz-L-Ile-L-Glu-L-Gly-L-Arg-p-nitroanilide. HCl, DiaPharma). Typically, 145 μL human trypsin (0.5 nM final) in 10 mM HEPES, 150 mM NaCl, 0.1% BSA, and 5 μL of the test substance in DMSO (2% final) are incubated for 60 minutes at room temperature. Following preheating to 37° C. for 5 minutes, to this mixture is added 100 μL of S2222 in HBSA buffer (100 μM final), and the velocity of S2222 hydrolysis is determined at 37° C. by measuring the optical density at OD 405 nm every 10 seconds over 5 minutes using a ThermoMax® Kinetic Microplate Reader.

human factor Xa [3] = target: T2, human factor Xa (Homo sapiens, UniProt P00742); assay: Determination of factor Xa IC50 (chromogenic substrate S2765); type: biochemical
T2 construct: human factor Xa (1 nM final, Enzyme Research Laboratories); purchased Enzyme Research Laboratories
Experimental: The ability of compounds to act as inhibitors of human factor Xa catalytic activity is assessed by determination of that concentration of test substance that inhibits by 50% (IC50) the ability of human factor Xa to cleave the chromogenic substrate S2765 (N-CBz-D-Arg-L-Gly-L-Arg-p-nitroanilide. 2HCl, DiaPharma). Typically, 145 μL human factor Xa (1 nM final, Enzyme Research Laboratories) in 10 mM HEPES, 150 mM NaCl, 0.1% BSA, pH 7.4 (HBSA buffer), and 5 μL of test substance in DMSO (2% final) are incubated for 60 minutes at room temperature. Following preheating to 37° C. for 5 minutes, to this mixture is added 100 μL of S2765 (400 μM final) in HBSA buffer. The velocity of S2765 hydrolysis is determined at 37° C. by measuring the initial rate of change of the optical density at OD405 nm every 10 seconds for 5 minutes using a ThermoMax® Kinetic Microplate Reader.

human factor Xa [4] = target: T2, human factor Xa; assay: Determination of factor Xa Ki (fluorogenic S2765); type: biochemical
Experimental: Compounds of the present invention may be prepared for assay by dissolving them in buffer to give solutions ranging in concentrations from 1 to 100 μM. In an assay to determine the inhibitory dissociation constant, Ki, for a given compound, a chromogenic or fluorogenic substrate of factor Xa would be added to a solution containing a test compound and factor Xa; the resulting catalytic activity of the enzyme is spectrophotometrically determined. This assay is well-known to those skilled in the art and is commonly used to determine antithrombotic activity.
For Ki determinations, the assay conditions were essentially the same as above except for the following. The concentration of factor Xa was 50 pM, and that of the substrate, in this case a fluorogenic S2765 (i.e. S2765 with AMC tag instead of pNA, California Peptide Research), was over the range of 10 to 500 μM. The test compound and substrate in HBSA buffer were incubated as above, and the reaction was initiated with enzyme-buffer. The data (steady-state velocity at various concentrations of the substrate and the inhibitors) of the competitive inhibition was analyzed using the methods described by Segel (Enzyme Kinetics, Wiley Interscience Publications, 1993). […]

[5] = target: T3, human tissue factor/factor VIIa complex (Homo sapiens, UniProt P08709); assay: Determination of tissue factor/factor VIIa inhibition (Spectrozyme VIIa); type: biochemical; conditions: read-out: VIIa % inhib. @ 100 μM
T3 construct: 50 μL human factor VIIa (Enzyme Research Laboratories); purchased Enzyme Research Laboratories (factor VIIa); American Diagnostica (tissue factor)
Experimental: The ability of compounds to act as inhibitors of the catalytic activity of human tissue factor/factor VIIa complex is assessed by determination of that concentration of test substance that inhibits by 50% (IC50 the ability of a complex of human recombinant tissue factor/factor VIIa to cleave the chromogenic substrate Spectrozyme VIIa (CH3SO2-D-CHA-Arg-pNA*AcOH, American Diagnostica). Typically, 50 μL human factor VIIa (Enzyme Research Laboratories) is incubated for 10 minutes as a 1:1 mixture (5 nM final each) with 95 μL recombinant human tissue factor (American Diagnostica) in a modified HBSA buffer (10 mM Hepes, 5 mM CaCl2, 0.1% BSA, pH 8.0). Then 5 μL of the test substance in DMSO (2% final) is added and incubated for 60 minutes at room temperature. Following preheating to 37° C. for 5 minutes, to this mixture is added 100 μL of Spectrozyme VIIa (500 μM final) in modified HBSA, and the velocity of Spectrozyme VIIa hydrolysis is determined at 37° C. by measuring the optical density at an OD405 nm every 10 seconds over 5 minutes using a ThermoMax® Kinetic Microplate Reader.

[6] = target: T4, human prothrombinase (PTase) complex (Homo sapiens, UniProt P00742); assay: In vitro assay for human prothrombinase; type: biochemical; conditions: PTase activity expressed by thrombin activity
T4 construct: 2.5 pM human factor Xa (Enzyme Research Laboratories); purchased Enzyme Research Laboratories
Experimental: For determination of IC50 (PTase) of the compounds of the invention, PTase activity was expressed by thrombin activity.
PTase reaction was performed in 100 μL of mixture containing PTase (20 μM) PCPS (Avanti Polar Lipids following a procedure modified from Barenholz et al., Biochemistry, 1977;16:2806-2810) in a 30:70 ratio, 2.5 nM human factor Va (Enzyme Research Laboratories) and 2.5 pM human factor Xa (Enzyme Research Laboratories) in modified HEPES buffer (10 mM Hepes, 150 mM NaCl, 0.1% PEG-8000, 0.05% BSA, 2.5 mM CaCl2, pH 7.4), 3 μM human prothrombin (Enzyme Research Laboratories) and varied concentrations of the test compounds (1 nM to 100 μM in DMSO, 2% final). Reaction was started by co-incubating PTase with test compound for 60 minutes at room temperature, followed by addition of prothrombin for 6 minutes at room temperature. Next, the reaction was quenched by the addition of 100 μL of 20 mM EDTA. Activity of the thrombin (product) is then measured in the presence of 50 μL S2238 (250 μM final, H-D-Phe-Pip-Arg-pNA*Ac, DiaPharma) as substrate by measuring the change at 37° C. in OD405 nm for 5 minutes at 10 second intervals using a ThermoMax® Kinetic Microplate Reader.

rabbit = assay: Rabbit veno-venous shunt model of thrombosis; type: in vivo
Experimental: In that model, a plastic shunt which contains cotton thread was inserted into abdominal vena cava and thrombus developed inside the shunt under control conditions. The end points of the experiment are the time to occlusion (TTO) and thrombus weight. […] Three doses have been tested in a total of 15 rabbits (5 rabbits in each group): 30 μg/kg+1 μg/kg/min, 60 μg/kg+2 μg/kg/min, and 90 μg/kg+3 μg/kg/min. […] The net thrombus weight was reduced from 56.4±4.3 to 21.3±7.8 mg in that group.

[7] = 30 μg/kg+1, 60 μg/kg+2, 90 μg/kg+3 μg/kg/min
[8] = highest dose 90 μg/kg+3 μg/kg/min

T3 sequence (P08709 213-466 limits assumed): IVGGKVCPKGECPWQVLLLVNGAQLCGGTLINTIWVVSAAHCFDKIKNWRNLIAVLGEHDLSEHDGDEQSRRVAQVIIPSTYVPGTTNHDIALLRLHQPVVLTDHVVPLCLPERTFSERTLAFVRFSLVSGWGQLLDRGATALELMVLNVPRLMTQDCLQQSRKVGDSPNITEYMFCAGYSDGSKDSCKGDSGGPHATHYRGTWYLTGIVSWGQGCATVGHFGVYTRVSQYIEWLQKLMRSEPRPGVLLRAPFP
T3 sequence (P08709 61-212 limits assumed): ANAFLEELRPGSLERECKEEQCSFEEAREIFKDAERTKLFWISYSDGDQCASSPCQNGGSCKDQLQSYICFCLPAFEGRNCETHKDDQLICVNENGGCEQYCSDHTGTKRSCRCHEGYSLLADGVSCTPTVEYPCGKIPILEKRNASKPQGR
T3 sequence (P13726 33-295 partner): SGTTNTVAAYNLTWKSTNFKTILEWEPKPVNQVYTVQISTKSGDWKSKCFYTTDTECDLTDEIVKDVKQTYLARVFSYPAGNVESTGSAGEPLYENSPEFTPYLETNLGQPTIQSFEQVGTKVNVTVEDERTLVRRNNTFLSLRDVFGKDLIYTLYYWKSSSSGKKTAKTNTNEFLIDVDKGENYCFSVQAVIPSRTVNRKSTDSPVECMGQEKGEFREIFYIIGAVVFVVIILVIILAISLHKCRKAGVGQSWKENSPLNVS
T2 sequence (P00742 235-488 limits assumed): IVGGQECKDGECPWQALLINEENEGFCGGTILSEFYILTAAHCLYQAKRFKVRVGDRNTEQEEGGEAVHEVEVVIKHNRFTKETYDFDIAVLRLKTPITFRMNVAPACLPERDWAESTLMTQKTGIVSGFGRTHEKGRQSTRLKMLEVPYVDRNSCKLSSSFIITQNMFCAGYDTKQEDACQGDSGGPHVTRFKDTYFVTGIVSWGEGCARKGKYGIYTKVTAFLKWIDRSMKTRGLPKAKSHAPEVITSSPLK
T2 sequence (P00742 41-179 limits assumed): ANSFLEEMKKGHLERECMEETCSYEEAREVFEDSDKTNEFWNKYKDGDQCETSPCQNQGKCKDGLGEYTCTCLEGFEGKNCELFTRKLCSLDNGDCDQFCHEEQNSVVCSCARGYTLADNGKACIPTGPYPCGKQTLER
T4 sequence (P00742 235-488 limits assumed): as the sequence (P00742 235-488 limits assumed) above
T4 sequence (P00742 41-179 limits assumed): as the sequence (P00742 41-179 limits assumed) above
T4 sequence (P12259 29-737 partner limits assumed): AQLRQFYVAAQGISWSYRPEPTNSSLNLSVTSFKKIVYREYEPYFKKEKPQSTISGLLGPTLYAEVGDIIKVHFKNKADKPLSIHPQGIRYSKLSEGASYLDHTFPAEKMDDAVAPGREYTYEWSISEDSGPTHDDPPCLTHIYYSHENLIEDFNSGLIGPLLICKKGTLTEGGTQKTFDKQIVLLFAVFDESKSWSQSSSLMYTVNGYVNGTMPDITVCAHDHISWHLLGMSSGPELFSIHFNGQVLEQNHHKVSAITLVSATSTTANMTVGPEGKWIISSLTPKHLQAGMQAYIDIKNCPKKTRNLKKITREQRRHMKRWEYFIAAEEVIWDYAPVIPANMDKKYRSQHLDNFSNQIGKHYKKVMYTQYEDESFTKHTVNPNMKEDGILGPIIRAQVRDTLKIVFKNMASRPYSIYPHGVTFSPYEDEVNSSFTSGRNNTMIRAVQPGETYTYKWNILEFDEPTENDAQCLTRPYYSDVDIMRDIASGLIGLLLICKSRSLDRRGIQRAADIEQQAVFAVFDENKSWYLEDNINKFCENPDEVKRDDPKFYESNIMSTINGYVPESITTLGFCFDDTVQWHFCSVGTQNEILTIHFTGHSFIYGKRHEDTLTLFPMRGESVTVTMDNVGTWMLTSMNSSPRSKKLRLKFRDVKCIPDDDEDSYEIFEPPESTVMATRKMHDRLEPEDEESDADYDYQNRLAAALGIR
T4 sequence (P12259 1574-2224 partner limits assumed): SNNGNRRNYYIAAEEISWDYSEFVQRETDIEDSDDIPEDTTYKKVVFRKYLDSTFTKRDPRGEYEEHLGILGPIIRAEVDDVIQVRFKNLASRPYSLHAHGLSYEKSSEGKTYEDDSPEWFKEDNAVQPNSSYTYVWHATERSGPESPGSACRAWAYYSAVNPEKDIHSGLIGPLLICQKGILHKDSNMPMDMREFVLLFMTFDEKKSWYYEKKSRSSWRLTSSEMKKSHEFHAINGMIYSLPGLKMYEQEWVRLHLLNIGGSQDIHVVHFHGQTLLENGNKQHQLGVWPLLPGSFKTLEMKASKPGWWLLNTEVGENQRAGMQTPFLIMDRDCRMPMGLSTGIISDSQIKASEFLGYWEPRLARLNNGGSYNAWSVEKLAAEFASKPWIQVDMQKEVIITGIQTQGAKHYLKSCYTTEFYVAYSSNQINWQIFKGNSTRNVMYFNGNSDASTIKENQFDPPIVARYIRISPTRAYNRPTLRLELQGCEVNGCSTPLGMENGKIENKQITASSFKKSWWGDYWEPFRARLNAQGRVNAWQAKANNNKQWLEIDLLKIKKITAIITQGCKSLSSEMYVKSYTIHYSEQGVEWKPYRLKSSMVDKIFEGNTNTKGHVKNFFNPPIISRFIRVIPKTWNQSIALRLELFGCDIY

Compound | concentration that causes 2-fold prolongation of baseline dPT [1] [µM] | concentration that causes 5-fold prolongation of baseline dPT [1] [µM] | concentration that causes 10-fold prolongation of baseline dPT [1] [μM] | concentration that causes 2-fold prolongation of baseline dPT (pooled plasma from dogs) [µM] | concentration that causes 5-fold prolongation of baseline dPT (pooled plasma from dogs) [µM] | concentration that causes 10-fold prolongation of baseline dPT (pooled plasma from dogs) [μM] | concentration that causes 2-fold prolongation of baseline dPT [2] [µM] | concentration that causes 5-fold prolongation of baseline dPT [2] [µM] | concentration that causes 10-fold prolongation of baseline dPT [2] [μM] | IC50 (human thrombin) [nM] | IC50 (human trypsin) [nM] | IC50 (human factor Xa [3]) [nM] | inhibition at 100 µM [5] [%] | also measured
CC(=N)N1CC[C@H](Oc2ccc([C@H](Cc3ccc4ccc(C(=N)N)cc4c3)C(=O)O)cc2)C1 [DX-9065a, reference compound] | 1.4 | 21.8 | 96.8 | 2.5 | 51.1 | 118.6 | 0.06 | 0.53 | 1.3 | – | – | – | – | –
C[C@@H]1CCC[C@H](C)N1CCCCCN1C(=O)[C@H](c2cc(C(=N)N)ccc2O)Oc2ccccc21 [Example 6, 3-((2S)-4-5-[(2R,6S)-2,6-Dimethyltetrahydro-1(2H)-pyridinyl]pentyl-3-oxo-3,4-dihydro-2H-1,4-benzoxazin-2-yl)-4-hydroxybenzenecarboximidamide] | – | – | – | – | – | – | – | – | – | 1390 | 750 | 3 | 37 | Ki (human factor Xa [4]): 0.076 nM
C[C@@H]1CCC[C@H](C)N1CCCCCN1C(=O)C(c2cccc(C(=N)N)c2)Sc2ccccc21 (stereo partly drawn) [Example 3, 3-(4-5-[(2R,6S)-2,6-Dimethylhexahydro-1-pyridinyl]pentyl-3-oxo-3,4-dihydro-2H-1,4-benzothiazin-2-yl)-1-benzenecarboximidamide] | – | – | – | – | – | – | – | – | – | 1780 | 782 | 108 | 31 | –
C[C@@H]1CCC[C@H](C)N1CCCCCN1C(=O)C(c2cc(C(=N)N)ccc2O)Oc2ccccc21 (stereo partly drawn) [Example 5, 3-(4-5-[(2R,6S)-2,6-Dimethyltetrahydro-1(2H)-pyridinyl]pentyl-3-oxo-3,4-dihydro-2H-1,4-benzoxazin-2-yl)4-hydroxybenzenecarboximidamide] | 0.44 | 0.97 | 1.86 | 0.84 | 1.2 | 1.81 | 0.0069 | 0.063 | 0.157 | 1030 | 380 | < 1 | 29 | IC50 [6]: 0.17 nM
C[C@@H]1CCC[C@H](C)N1CCCCCN1C(=O)C(c2cccc(C(=N)N)c2)Oc2ccccc21 (stereo partly drawn) [Example 2, 3-(4-5-[(2R,6S)-2,6-Dimethylhexahydro-1-pyridinyl]pentyl-3-oxo-3,4-dihydro-2H-1,4-benzoxazin-2-yl)-1-benzenecarboximidamide] | – | – | – | – | – | – | – | – | – | – | 474 | 7 | 30 | net thrombus weight, dose dependence (rabbit; [7]): reduced the net thrombus weight; time to occlusion, dose dependence (rabbit; [7]): dose-dependently prolonged the time to occlusion; ACT (rabbit; all 3 dose groups): only slight increases; animals with no occlusive thrombus formation during the 120-minute test period (rabbit; [8]): 4 out of 5; prolongation of PT (rabbit; [8]): 1.8 fold; prolongation of TT (rabbit; [8]): 1.5 fold; prolongation of aPTT (rabbit; [8]): 5.4 fold; prolongation of bleeding time (rabbit; [8]): 2.5 fold; time to occlusion (TTO) (rabbit; highest dose 90 μg/kg+3 μg/kg/min, bolus via jugular vein + infusion 140 minutes, control 16.8±5.4): 98.2 ± 21.8 min; net thrombus weight (rabbit; highest dose 90 μg/kg+3 μg/kg/min, control 56.4±4.3): 21.3 ± 7.8 mg
